How the values were obtained:
Kuramochi cells = assay: BrdU cell proliferation assay (colorimetric ELISA), Kuramochi cells; assay type: cell-based; settings: class symbols A-D
Summary of the method: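 Proliferation was read as BrdU incorporation: a 1 h pulse, then fixation and peroxidase-antibody ELISA at 450 nm, with values normalized to DMSO after empty-well subtraction. Treatment lasted 4 days on Kuramochi cells seeded at 2,000/well, using four 3-fold compound dilutions from 10 mM stocks. RB^KO Kuramochi cells were run in parallel for specificity.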

CDK2/Cyclin E1(14-475) = CDK2/Cyclin E1(14-475) (Homo sapiens, UniProt P24941); assay: Caliper LabChip EZ Reader mobility shift assay, inhibition of CDK2/Cyclin E1 activity; assay type: biochemical; settings: class symbols A-D
Summary of the method: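 Mobility-shift readout of fluorescent peptide (1.5 μM final) phosphorylation by 2.5 nM CDK2/Cyclin E1(14-475) at 100 μM ATP, pH 7.5. Compounds pre-incubated 30 min with enzyme before substrate addition; 100-min reaction halted by EDTA, normalized % activity fitted to four-parameter curve for IC50.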

SMILES	IC50 (CDK2/Cyclin E1(14-475)) [µM]	IC50 (Kuramochi cells) [µM]
CNC(=O)[C@H](CCCc1ccccc1)NC(=O)C1CN(C(=O)c2ccc3cccn3c2)CC2CN(C(=O)c3ccc(OC(C)C)c(OC)c3)CC21 (some centres unmarked) [I-199]	> 10	> 10
CNC(=O)[C@H](CCCc1ccccc1)NC(=O)C1CN(C(=O)Cc2c[nH]c3ccc(OC)cc23)CC2CN(C(=O)c3ccc(OC(C)C)c(OC)c3)CC21 (some centres unmarked) [I-200]	5 to 10	> 10
CNC(=O)[C@H](CCCc1ccccc1)NC(=O)C1CN(C(=O)Cc2c(C)[nH]c3ccccc23)CC2CN(C(=O)c3ccc(OC(C)C)c(OC)c3)CC21 (some centres unmarked) [I-201]	0.5 to 5	> 10
CNC(=O)[C@H](CCCc1ccccc1)NC(=O)C1CN(C(=O)Cc2ccncc2)CC2CN(C(=O)c3ccc(OC(C)C)c(OC)c3)CC21 (some centres unmarked) [I-202]	> 10	> 10
CNC(=O)[C@H](CCCc1ccccc1)NC(=O)C1CN(C(=O)Cc2c[nH]c3cc(C#N)ccc23)CC2CN(C(=O)c3ccc(OC(C)C)c(OC)c3)CC21 (some centres unmarked) [I-203]	0.5 to 5	> 10
CNC(=O)[C@H](CCCc1ccccc1)NC(=O)C1CN(C(=O)Cc2coc3cc(Cl)ccc23)CC2CN(C(=O)c3ccc(OC(C)C)c(OC)c3)CC21 (some centres unmarked) [I-204]	0.5 to 5	> 10
CNC(=O)[C@H](CCCc1ccccc1)NC(=O)C1CN(C(=O)Cc2n[nH]c3cc(Cl)ccc23)CC2CN(C(=O)c3ccc(OC(C)C)c(OC)c3)CC21 (some centres unmarked) [I-205]	0.5 to 5	> 10
CNC(=O)[C@H](CCCc1ccccc1)NC(=O)C1CN(C(=O)c2cncs2)CC2CN(C(=O)c3ccc(OC(C)C)c(OC)c3)CC21 (some centres unmarked) [I-206]	> 10	> 10
CNC(=O)[C@H](CCCc1ccccc1)NC(=O)C1CN(C(=O)C2CCOCC2)CC2CN(C(=O)c3ccc(OC(C)C)c(OC)c3)CC21 (some centres unmarked) [I-207]	> 10	> 10
CNC(=O)[C@H](CCCc1ccccc1)NC(=O)C1CN(C(=O)c2ccc(C#N)cn2)CC2CN(C(=O)c3ccc(OC(C)C)c(OC)c3)CC21 (some centres unmarked) [I-208]	> 10	> 10
CNC(=O)[C@H](CCCc1ccccc1)NC(=O)C1CN(C(=O)c2cccc(CO)n2)CC2CN(C(=O)c3ccc(OC(C)C)c(OC)c3)CC21 (some centres unmarked) [I-209]	> 10	> 10
CNC(=O)[C@H](CCCc1ccccc1)NC(=O)C1CN(C(=O)c2cccc(-c3cccnc3)c2)CC2CN(C(=O)c3ccc(OC(C)C)c(OC)c3)CC21 (some centres unmarked) [I-210]	> 10	> 10
CNC(=O)[C@H](CCCc1ccccc1)NC(=O)C1CN(C(=O)c2cncc(C)n2)CC2CN(C(=O)c3ccc(OC(C)C)c(OC)c3)CC21 (some centres unmarked) [I-211]	> 10	> 10
CNC(=O)[C@H](CCCc1ccccc1)NC(=O)C1CN(C(=O)Cc2c[nH]c3cnccc23)CC2CN(C(=O)c3ccc(OC(C)C)c(OC)c3)CC21 (some centres unmarked) [I-212]	> 10	> 10
CNC(=O)[C@H](CCCc1ccccc1)NC(=O)C1CN(C(=O)c2cccc3cc[nH]c23)CC2CN(C(=O)c3ccc(OC(C)C)c(OC)c3)CC21 (some centres unmarked) [I-213]	> 10	> 10
CCc1ccc(C(=O)N2CC3CN(C(=O)c4ccc(OC(C)C)c(OC)c4)CC3C(C(=O)N[C@@H](CCCc3ccccc3)C(=O)NC)C2)nc1 (some centres unmarked) [I-214]	> 10	> 10
CNC(=O)[C@H](CCCc1ccccc1)NC(=O)C1CN(C(=O)c2ccn(C)c2)CC2CN(C(=O)c3ccc(OC(C)C)c(OC)c3)CC21 (some centres unmarked) [I-215]	> 10	> 10
CNC(=O)[C@H](CCCc1ccccc1)NC(=O)C1CN(C(=O)c2ccc(OC)nn2)CC2CN(C(=O)c3ccc(OC(C)C)c(OC)c3)CC21 (some centres unmarked) [I-216]	> 10	> 10
CNC(=O)[C@H](CCCc1ccccc1)NC(=O)C1CN(C(=O)Cc2c[nH]c3cccc(C)c23)CC2CN(C(=O)c3ccc(OC(C)C)c(OC)c3)CC21 (some centres unmarked) [I-217]	> 10	> 10

The next lines start with results.

IC50 (CDK2/Cyclin E1(14-475)) [µM]	SMILES	IC50 (Kuramochi cells) [µM]
> 10	CNC(=O)[C@H](CCCc1ccccc1)NC(=O)C1CN(C(=O)Cc2cn(CCOC)c3ccccc23)CC2CN(C(=O)c3ccc(OC(C)C)c(OC)c3)CC21 (some centres unmarked) [I-218]	> 10
0.5 to 5	CNC(=O)[C@H](CCCc1ccccc1)NC(=O)C1CN(C(=O)Cc2c[nH]c3ccc(C)cc23)CC2CN(C(=O)c3ccc(OC(C)C)c(OC)c3)CC21 (some centres unmarked) [I-219]	> 10
> 10	CNC(=O)[C@H](CCCc1ccccc1)NC(=O)C1CN(C(=O)Cc2c[nH]c3ccc(Cl)cc23)CC2CN(C(=O)c3ccc(OC(C)C)c(OC)c3)CC21 (some centres unmarked) [I-220]	> 10
> 10	CNC(=O)[C@H](CCCc1ccccc1)NC(=O)C1CN(C(=O)Cc2c[nH]c3ccccc23)CC2CN(C(=O)c3ccc(OC(C)C)c(OC)c3)CC21 (some centres unmarked) [I-223]	> 10
0.5 to 5	CNC(=O)[C@H](CCCc1ccccc1)NC(=O)C1CN(C(=O)Cc2cn(C)c3cc(Cl)ccc23)CC2CN(C(=O)c3ccc(OC(C)C)c(OC)c3)CC21 (some centres unmarked) [I-225]	> 10
0.5 to 5	CNC(=O)[C@H](CCCc1ccccc1)NC(=O)C1CN(C(=O)C(C)c2c[nH]c3cc(Cl)ccc23)CC2CN(C(=O)c3ccc(OC(C)C)c(OC)c3)CC21 (some centres unmarked) [I-226]	5 to 10
≤ 0.5	CNC(=O)[C@H](CCCc1ccccc1)NC(=O)C1CN(C(=O)Cc2c[nH]c3cc(Cl)c(Cl)cc23)CC2CN(C(=O)c3ccc(OC(C)C)c(OC)c3)CC21 (some centres unmarked) [I-227]	> 10
> 10	CNC(=O)[C@H](CCCc1ccccc1)NC(=O)C1CN(C(=O)c2c[nH]c3cc(C)ccc23)CC2CN(C(=O)c3ccc(OC(C)C)c(OC)c3)CC21 (some centres unmarked) [I-228]	> 10
> 10	CNC(=O)[C@H](CCCc1ccccc1)NC(=O)C1CN(C(=O)Cc2c[nH]c3c(OC)cccc23)CC2CN(C(=O)c3ccc(OC(C)C)c(OC)c3)CC21 (some centres unmarked) [I-229]	> 10
> 10	CNC(=O)[C@H](CCCc1ccccc1)NC(=O)C1CN(C(=O)Cc2cnccn2)CC2CN(C(=O)c3ccc(OC(C)C)c(OC)c3)CC21 (some centres unmarked) [I-230]	> 10
5 to 10	CNC(=O)[C@H](CCCc1ccccc1)NC(=O)C1CN(C(=O)Cc2c[nH]c3cc(C)ccc23)CC2CN(C(=O)c3ccc(OC(C)C)c(OC)c3)CC21 (some centres unmarked) [I-231]	> 10
> 10	CNC(=O)[C@H](CCCc1ccccc1)NC(=O)C1CN(C(=O)Cc2c[nH]c3cc(OCC4CC4)ccc23)CC2CN(C(=O)c3ccc(OC(C)C)c(OC)c3)CC21 (some centres unmarked) [I-234]	> 10
≤ 0.5	CNC(=O)[C@H](CCCc1ccccc1)NC(=O)C1CN(C(=O)Cc2c[nH]c3ccc(Br)cc23)CC2CN(C(=O)c3ccc(OC(C)C)c(OC)c3)CC21 (some centres unmarked) [I-237]	> 10
0.5 to 5	COc1cc(C(=O)N2CC3CN(C(=O)Cc4c[nH]c5cc(Cl)ccc45)CC(C(=O)Nc4cncc(Cc5ccccc5)c4)C3C2)ccc1OC(C)C (centres unmarked) [I-238, N-(5-benzylpyridin-3-yl)-5-(2-(6-chloro-1H-indol-3-yl)acetyl)-2-(4-isopropoxy-3-methoxybenzoyl)octahydro-1H-pyrrolo[3,4-c]pyridine-7-carboxamide]	0.5 to 5
0.5 to 5	COc1cc(C(=O)N2CC3CN(C(=O)Cc4c[nH]c5cc(Cl)ccc45)CC(C(=O)Nc4ccnc(Cc5ccccc5)c4)C3C2)ccc1OC(C)C (centres unmarked) [I-239]	> 10
0.5 to 5	COc1cc(C(=O)N2CC3CN(C(=O)Cc4c[nH]c5cc(Cl)ccc45)CC(C(=O)Nc4cncc(Oc5ccccc5)c4)C3C2)ccc1OC(C)C (centres unmarked) [I-240]	> 10
> 10	COc1cc(C(=O)N2CC3CN(C(=O)Cc4c[nH]c5cc(Cl)ccc45)CC(C(=O)Nc4ccc(Cc5ccccc5)nc4)C3C2)ccc1OC(C)C (centres unmarked) [I-241]	> 10
0.5 to 5	CNC(=O)[C@@H](NC(=O)C1CN(C(=O)Cc2c[nH]c3cc(Cl)ccc23)CC2CN(C(=O)c3ccc(OC4CC4)cc3)CC21)[C@@H](C)OCC1CCCCC1 (stereo partly drawn) [I-242, 5-(2-(6-chloro-1H-indol-3-yl)acetyl)-N-((2S,3R)-3-(cyclohexylmethoxy)-1-(methylamino)-1-oxobutan-2-yl)-2-(4-cyclopropoxybenzoyl)octahydro-1H-pyrrolo[3,4-c]pyridine-7-carboxamide]	> 10
0.5 to 5	C[C@H](OCc1ccc(F)cc1)[C@H](NC(=O)C1CN(C(=O)Cc2c[nH]c3cc(Cl)ccc23)CC2CN(C(=O)c3ccc(OC4CC4)cc3)CC21)C(N)=O (some centres unmarked) [I-243]	> 10
> 10	C[C@@H](OCc1ccc(F)cc1)[C@H](NC(=O)C1CN(C(=O)Cc2c[nH]c3cc(Cl)ccc23)CC2CN(C(=O)c3ccc(OC4CC4)cc3)CC21)C(N)=O (some centres unmarked) [I-244]	> 10
> 10	C[C@H](OCc1ccc(F)cc1)[C@@H](NC(=O)C1CN(C(=O)Cc2c[nH]c3cc(Cl)ccc23)CC2CN(C(=O)c3ccc(OC4CC4)cc3)CC21)C(N)=O (some centres unmarked) [I-245]	> 10
> 10	C[C@@H](OCc1ccc(F)cc1)[C@@H](NC(=O)C1CN(C(=O)Cc2c[nH]c3cc(Cl)ccc23)CC2CN(C(=O)c3ccc(OC4CC4)cc3)CC21)C(N)=O (some centres unmarked) [I-246]	> 10
> 10	CNC(=O)[C@H](CCCc1ccccc1)NC(=O)C1CN(C(=O)Cc2c[nH]c3cc(OC)ccc23)CC2CN(C(=O)c3ccc(Cl)c(Cl)c3)CC21 (stereo partly drawn) [I-247, 2-(3,4-dichlorobenzoyl)-5-(2-(6-methoxy-1H-indol-3-yl)acetyl)-N—((S)-1-(methylamino)-1-oxo-5-phenylpentan-2-yl)octahydro-1H-pyrrolo[3,4-c]pyridine-7-carboxamide]	> 10
> 10	CNC(=O)[C@H](CCCc1ccccc1)NC(=O)C1CN(C(=O)Cc2c[nH]c3cc(OC)ccc23)CC2CN(C(=O)c3ccc(C(F)(F)F)c(Cl)c3)CC21 (some centres unmarked) [I-248]	> 10
